“Also recorded” adds a separate entry of the source. Ends that are not written are not given here.
Experiments:
[1] = test system: 4T1 cells; assay: Transmission electron microscopy of treated cells; assay type: cell-based, murine; conditions: 100 µM
Method: Samples were fixed in 2.5% glutaraldehyde, 3 mM MgCl2 in 0.1 M sodium cacodylate buffer, pH 7.2 overnight at 4 °C. After buffer rinse, samples were postfixed in 2% osmium tetroxide in 0.1 M sodium cacodylate for at least 1 h (no more than two) on ice in the dark. After osmium, samples were rinsed in 0.1 M Maleate buffer (pH 6.2), followed by uranyl acetate in 0.1 M Maleate (0.22 µm filtered, 1 h, dark), dehydrated in a graded series of ethanol and embedded in Epon (PolySci) resin. Samples were polymerized at 60 °C overnight. Thin sections, 60–90 nm, were cut with a diamond knife on a Leica UCT ultramicrotome and picked up with 2 × 1 mm Formvar copper slot grids. Grids were stained with 2% uranyl acetate (aq.) followed by lead citrate and observed with a Hitachi 7600 TEM at 80 kV. Images were captured with an AMT CCD XR80 (8-megapixel camera—side mount AMT XR80—high-resolution high-speed camera).

[2] = test system: caspase-3 or caspase-7; assay: CellEvent Caspase-3/7 live cell imaging; assay type: cell-based, murine; conditions: 4T1 cells, 100 µM
Method: Fluorescence labeling of cells was performed by seeding 5.0 × 10^4 4T1 cells in a 35 mm dish on a collagen-coated No. 1.5 coverslip with a 14 mm glass diameter (MatTek, Ashland, MA). After overnight incubation, the cells were washed once with serum-free media and replaced with fresh serum-free media. For cell cytosol labeling, Calcein-AM (Thermo Fisher Scientific, C1430) was added at a final concentration of 5 µg/mL and incubated for 10 min. For mitochondrial membrane labeling, JC-1 (Thermo Fisher Scientific, T3168) was added at a final concentration of 10 µg/mL and incubated for 10 min. To monitor the activity of caspases, CellEvent Caspase-3/7 Red detection reagents (Thermo Fisher Scientific, C10423) were used following the manufacturer’s instructions. For nuclear staining, Hoechst 33342 (Cell Signaling Technology, #4082) was added at a final concentration of 5 µg/mL and incubated for 10 min.
Cells were imaged on either a Zeiss LSM 700 or a 3i spinning disk confocal microscope. Samples were imaged with optimized microscope settings. […]
Image processing was performed using Fiji software. […] For quantification, CellProfiler was used. After cell segmentation based on the nucleus, the intensity of the signal of interest was quantified for each cell. Based on the intensity, each cells were labeled as positive or negative and the fraction of positive cells was calculated.

[3] = test system: 4T1 cells; assay: Quantification of HMGB-1 release (ELISA); assay type: cell-based, murine; conditions: 100 µM, 6 h, N = 3
Method: (§1) Fifteen thousand cells of 4T1 cells or CT26 cells in growth media were seeded in wells of a 96-well plate. After 12 h, the media was replaced with serum-free media, and the cells were treated with the corresponding concentration of CKS1. The cells were treated with CKS1 for 6 h and the supernatant was collected from each well. After filtering the supernatant with a 0.2 µm pore filter (Corning, 431229), the amount of HMGB-1 in the supernatant was quantified using the Mouse/Rat HMGB1 ELISA kit (arigo biolaboratories, ARG81310).

[4] = test system: CT26 cells; assay: Quantification of HMGB-1 release (ELISA); assay type: cell-based, murine; conditions: 100 µM, 6 h, N = 3
Method: as §1

[5] = test system: DC2.4 murine dendritic cells; assay: Immunogenicity experiment: cytokine expression in dendritic cells (qPCR); assay type: cell-based; conditions: DC2.4 cells, 2 h with conditioned media from 4T1 cells treated with 100 µM CKS1; N = 4
Method: Two-lakh cells of 4T1 cells were seeded in wells of a 6-well plate. After overnight incubation, the media was replaced with 500 µL of fresh media, and 4T1 cells were treated with either 100 µM CKS1 or water for 2 h. In a separate well, 500 µL of fresh media was added and 100 µM CKS1 was incubated for 2 h. After the 2 h of incubation, all the supernatant was collected, filtered with 0.22 µm syringe filter, and was stored at −80 °C. Five lakh cells of DC2.4 cells were seeded in wells of a 24-well plate. After overnight incubation, the media was replaced with fresh media, supernatant from 4T1 cells treated with water, supernatant from 4T1 cells treated with 100 µM CKS1, or media containing 100 µM CKS1. DC2.4 cells were incubated for 2 h before RNA extraction.
RNA extraction was conducted using QIAwave RNA Mini Kit (Qiagen, Germany, 74535) following the manufacturer’s instructions. […]
Real-time qPCR was conducted using PowerUp SYBR Green Master Mix for qPCR (Thermo Fisher Scientific, A25741) following the manufacturer’s instructions. […] The relative quantity of TNF, IL-6, and IL-12b was normalized to the relative quantity of GAPDH. Finally, the expression level of the cytokines was normalized to the control sample and the fold change was calculated.

[6] = test system: CT26 tumors; assay: CT26 colon carcinoma model, intratumoral treatment; assay type: in vivo, Balb/c mice; conditions: 40 mg/kg intratumoral daily from day 7, N = 10
Method: The protocols used in this study were approved by the Institutional Care and Use Committee at Johns Hopkins Medical Institutions. Four- to eight-week-old female Balb/c mice were obtained from Charles River (Wilmington, MA). For the 4T1 […] model, 2.5 × 10^4 4T1 cells were injected into the first mammary fat pad of each mouse. For the CT26 colon carcinoma model, 1.0 × 10^6 CT26 cells were injected subcutaneously in the left flank. The sample size was determined so that the final distribution would be close to normal distribution. After 1 week, the animals were randomized into control and CKS1 treatment. During the randomization, the mice were kept in a cage covered with cloth so that the investigator could not see the tumor size. We started daily intratumoral treatment with 40 mg/kg CKS1. For the control group, the matching volume of water was treated intratumorally. The tumor size was measured by using a caliper, and the volume was calculated by using the formula 0.52 × (length) × (width)^2.

NGRKACLNPASPIVKKIIEKMLNS-NH2 [CKS1, Chemokinostatin-1]
cell membrane integrity by electron microscopy ([1]; 30 min): ruptured after 30 min | cell morphology by electron microscopy ([1]; 6 h): apoptotic morphology | fraction of cells with activated caspases [2]: increased over time | release of HMGB-1 in the culture media [3]: weak | release of HMGB-1 in the culture media [4]: significant release of HMGB-1 | expression level of TNF, IL-6, IL-12b [5]: significantly increased the expression level of the cytokines | tumor growth (tumor volume) [6]: inhibited; also recorded: highly sensitive
